Measurements from patent US6093720A, “Trans apovincaminic acid ester derivatives” (Richter Gedeon Vegyeszeti GmbH, priority 1995, dated 2000).
Several values for one entry are separate records, joined by “and”; a condition that tells them apart may be missing. Equal entries are not always repeated. Entries after “also recorded” stand apart in the source; their conditions may differ. Structures can show the parent of a compound that is named as a salt.

Columns and labels:
[1] = Diazepam-induced anterograde amnesia (passive avoidance); assay type: in vivo, NMRI mice; settings: for Inhibition of the diazepam-induced amnesia %: 1 hour before learning, diazepam 3 mg/kg i.p.; for antiamnesic activity, in words: diazepam-induced anterograde amnesia, 0.1 and 10 mg/kg p.o.
From the text: 2. Diazepam-Induced Anterograde Amnesia C. L. Broekkamp et al.: The comparative effects of benzodiazepines, progabide and PK 9084 on acquisition of passive avoidance in mice [Psychopharmacology (Berlin) 83, 122-125 (1984)]. The memory test was accomplished on NMRI mice weighing 25 to 28 g each by using the passive avoidance, a method based on the genetically determined nyctophilic behavior of rodents. During the learning period, the pre-selected animals (mice entering the dark space from the illuminated space within 30 seconds) were placed in an illuminated space. After entering the dark space, the animal received an electric shock (1 mA for […]) onto its planta within 30 seconds, then the time until entry to the dark space (latency period) was registered. After 24 hours, the animals were placed again in the illuminated space and the time until crossing over to the dark space (retention time=T with a time limit of 300 seconds) was measured. For inducing an anterograde amnesia, the animals were treated intraperitoneally with 3 mg/kg of diazepam 30 minutes before learning. The compounds were administered orally in 0.1 or 10 mg/kg doses, respectively 1 hour before learning. [formula]

[2] = Antiischemic effect on bilateral (carotid) artery ligation model, mortality; assay type: in vivo, mice; settings: for mortality at 2 mg/kg: 24 h, 30 minutes before 5-minute bilateral carotid ligation, control mortality 70%
Method: 1. Antiischemic Effect (On Bilateral Artery Ligation Model)
N. Himori et al.: Cerebral ischemia model with conscious mice involvement of NMDA receptor activation and derangement of learning and memory ability [J. Pharmacol. Meth. 23, 311-327 (1990)].
Carotid arteries of mice (weighing 30 to 32 g each) were exposed bilaterally under anaesthesia by 450 mg/kg of intraperitoneal (i.p.) chloral hydrate. The sympathetic and vagal nerves were separated and a loose ligation was bilaterally placed below the carotid arteries. Both ends of the ligation were led out on the back, behind the ears. Next day, in conscious state both ends of the ligation were pulled resulting in the stopping of blood supply through the carotid arteries. This was maintained for 5 minutes, then released to provide the reperfusion. The number of animals died during the 5-minute period and the following 24 hours were registered. The calculation of significance was performed by the chi^2 test. The pre-treatment with the compound was carried out intraperitoneally (i.p.) 30 minutes before the ligation.
The transient dramatic decrease in the cerebral blood supply, then the starting of reperfusion after stopping the ligation leads to the formation of extremely toxic oxygen free radicals (superoxide radical, hydrogen peroxide). […] [ED50 is the dose (as mg/kg) diminishing the mortality by 50% in comparison to the untreated is control group].

[3] = test system: NADPH-Induced Lipid Peroxidation in Brain Microsomes; assay: NADPH-induced (enzymatic) lipid peroxidation in brain microsomes (AEI); assay type: biochemical, rat (male Hannover-Wistar); settings: for IC50: NADPH-induced lipid peroxidation, rat brain microsomes, 37° C., 20 minutes, pH 6.8
Method: Effect on the NADPH-Induced Lipid Peroxidation in Brain Microsomes
Male Hannover-Wistar rats with a body weight of 150-250 g were used for the preparation of microsomes. After decapitation, the whole brain was removed and homogenized in a 10-fold volume of ice-cold 0.25 M saccharose solution. The homogenate was centrifuged in a Hitachi CR 26H equipment at 15000 g at 4° C. for 10 minutes, then the supernatant was collected and centrifuged in a Hitachi SCP 85H apparatus at 78000 g at 4° C. for 60 minutes. After suspending the precipitate in 0.15 M KCl solution, the protein content of the obtained solution was determined and then adjusted to 10 mg/ml concentration. The microsome thus obtained was frozen in a dry ice-acetone mixture and stored at -70° C. until use. The components of the incubation mixture were: 50 mM TRIS-HCl (pH 6.8), 0.2 mM FeCl3, 1 mM KH2 PO4, 0.5 mM ADP, 0.2 mg of microsomes as well as the compound to be tested. The incubation was carried out with a final volume of 1 ml and with an incubation time of 20 minutes at a temperature of 37° C. The lipid peroxidation was induced by adding 0.4 mM NADPH.
The formation of malondialdehyde was determined by using thiobarbituric acid. After stopping the reaction, 1 ml of 1% thiobarbituric acid solution each was weighed to the samples, which were then placed in a water bath of about 100° C. for 10 minutes. Subsequently, the samples were centrifuged at 2000 g in a Janetzki K70 apparatus at 4° C. for 10 minutes. The absorbance values of the colored supernatant were measured at 535 nm in a Hitachi 150-20 spectrophotometer. Malondialdehyde bis(diethylacetal) was used as reference compound.

[4] = test system: Fe^2+ -Induced Lipid Peroxidation in Brain Homogenate; assay: Fe^2+-induced (non-enzymatic) lipid peroxidation in brain homogenate (ANI); assay type: biochemical, rat (Hannover-Wistar); settings: for antioxidant activity in Fe^2+-induced lipid peroxidation, in words: comparison with idebenone, DL-α-tocopherol or silymarin
Method: Effect on the Fe^2+ -Induced Lipid Peroxidation in Brain Homogenate
After decapitating Hannover-Wistar rats weighing 150-220 g each, the whole brain was homogenized in 9 volumes of ice-cold Krebs-Ringer's buffer containing 15 mM HEPES, (4-(2-hydroxyethyl)-1-piperazinylethanesulfonic acid) (pH 7.4), 140 mM NaCl7 3.6 mM KCl, 1.5 mM CaCl2, 0.7 mM MgCl2, 1.4 mM KH2 PO4 and 10 glucose. Then the protein content of the solution was determined and adjusted to 10 mg/ml concentration.
After adding the inhibitory agent to be tested in a volume of 5 μl to 200 μl of the homogenate, the incubation mixture was incubated at 37° C. for 20 minutes. The Fe^2+ -induced lipid peroxidation was accomplished by adding 5 μl of 8 mM Fe2 (NH4)2 (SO4)2 solution. After passing of the incubation time, the reaction was stopped by adding 1 ml of a stopping solution containing 0.8 M HCl and 12.5% trichloroacetic acid, then the samples were centrifuged at 2000 g in a Janetzki K70 apparatus at 4° C. for 10 minutes.
To a 0.5 ml portion of the supernatant, 1 ml of 1% thiobarbituric acid solution was added, then the samples were placed in a water bath of 100° C. for 20 minutes. The color intensity developed was determined at 535 nm with a Hitachi 150-20 spectrophotometer by using malondialdehyde bis(diethylacetal) as reference compound.
ANI: non-enzymatically (Fe^2+) induced lipid peroxidation test

[5] = "Focal" ischemia models elicited in one well-determined area of the brain; assay type: in vivo
[6] = Antiischemic effect after oral administration; assay type: in vivo
[7] = Antiamnesic activity in rats; assay type: in vivo
[8] = Protection against ischemia-induced injury of memory; assay type: in vivo; settings: oral dose range between 1 and 10 mg/kg
[9] = Electroshock-induced retrograde amnesia model; assay type: in vivo; settings: oral dose range between 0.1 and 10 mg/kg

Structure (SMILES)	Inhibition of the diazepam-induced amnesia % ([1]; 0.1 mg/kg p.o.) [%]	Inhibition of the diazepam-induced amnesia % ([1]; 10.0 mg/kg p.o.) [%]	antiamnesic activity, in words [1]	mortality at 2 mg/kg ([2]; Mus musculus, ip, 2 mg/kg i.p.) [%]	IC50 [3]	inhibition of NADPH-induced lipid peroxidation relative to silymarin (times as strongly) ([3]; compared with silymarin)	IC50 ([4]; Fe^2+-induced lipid peroxidation, rat brain homogenate, 37° C., 20 minutes, pH 7.4)	antioxidant activity in Fe^2+-induced lipid peroxidation, in words [4]	activity on focal ischemia models, in words [5]	antiischemic effect, in words [6]	ED50 ([2]; Mus musculus, ip, dose diminishing the mortality by 50% in comparison to the untreated control group) [mg/kg]	antiischemic activity, in words ([2]; bilateral artery ligation, mice, 2 mg/kg i.p.)	antiamnesic activity, in words [7]	protection against ischemia-induced injury of memory, in words [8]	antioxidant effect in NADPH-induced lipid peroxidation, in words ([3]; comparison with reference compounds)	antioxidant activity compared with idebenone or vinpocetine, in words ([3]; summary statement, in vitro and in vivo)	protective action, in words [9]
CCC(=O)OCCOC(=O)C1=C[C@@]2(CC)CCCN3CCc4c(n1c1ccccc41)[C@@H]32 [Compound 1011038, (+)-trans apovincaminic acid 2-(propionyloxy)ethyl ester(3α,16β)hydrochloride]	64	24	particularly effective	60	8.4 µM and < 10 µM	about 20 times	8.7 µM and < 10 µM	about twice as active as idebenone or DL-α-tocopherol	–	–	–	–	–	–	–	–	–
CC[C@@]12C=C(C(=O)OCCOC(C)=O)n3c4c(c5ccccc53)CCN(CCC1)[C@@H]42 [Compound 2705279, (-)-trans apovincaminic acid 2-acetoxyethyl ester(3β,16α)monohydrochloride]	79	119	particularly effective; also recorded: significant protective effect in both doses used and an activity by far exceeding that of vinpocetine; also recorded: most active in this field	10 to 30	6.3 µM and < 10 µM	–	–	about twice as active as idebenone or DL-α-tocopherol	active	can be measured after oral administration, too	0.76	most active	could well be measured in rats	protected against the ischemia-induced injury of memory	comparable to that of idebenone	surpasses both in vitro and in vivo that of idebenone or vinpocetine	dose-dependent protective action
